Assay results reported in US20070123462A1, “Effects of tissue transglutaminase on beta-amyloid-induced apoptosis” (Cornell Research Foundation, Inc., priority 2005, published 2007).

Tests used:
caspase-3 = assay: Caspase activation immunoblot in SH-SY5Y cells; type: cell-based, human
Description: FIGS. 6A-B depict characterization of β-amyloid1-42. […] The β-amyloid was either directly reconstituted in Me2SO or was pre-treated with hexafluoroisopropanol (HFIP) and dessicated prior to reconstitution in Me2SO. […] Activated caspase-3 was detected using a rabbit polyclonal antibody from Cell Signaling (Danvers, Mass.).
FIGS. 9A-B show changes in transglutaminase activity during β-amyloid-induced apoptosis. […] Experimental conditions in FIG. 9B were similar to those described in FIG. 9A, except cells were treated with H2O2 rather than BA for 24 hours.

TGase [1] = assay: In vivo (cellular) transamidation assay with 5-(biotin-amido)-pentylamine; type: cell-based, human
Description: The in vivo transamidation assays were performed as previously described in Antonyak et al., J. Biol. Chem. 279:41461-41467 (2004), which is hereby incorporated by reference in its entirety. […] The membranes were then incubated with horseradish-peroxidase-conjugated streptavidin (2 mg/ml; Pierce Inc., Rockford, Ill.) (diluted 1:2000) in BBST for 2 hours at room temperature, followed by washing (three times) for 20 minutes with BBST.

[2] = test system: RA-differentiated SH-SY5Y cells; type: cell-based
Description: (§1) To induce differentiation, human SH-SY5Y cells were cultured in phenol red-free, low serum media with 20 μM all-trans-retinoic acid (RA; Sigma) every other day for 6 days. When assaying cell viability, the cells were plated in 96-well dishes at a seeding density of approximately 5×10^3 cells per well, differentiated with 20 μM RA, and then treated with either media alone, 25 μM monodansyl cadaverine (MDC), β-amyloid1-42 (2.5, 5, and 10 μM) (HPLC-purified from American Peptide, Sunnyvale, Calif.), or with 25 μM MDC and different concentrations of β-amyloid1-42. Typically, β-amyloid1-42 was reconstituted in […] and then further diluted into cell culture media, using conditions that have been reported to give rise primarily to β-amyloid oligomers and large aggregates rather than fibrils (Dahlgren et al., J. Biol. Chem. 277:32046-32053 (2002); Stine et al., J. Biol. Chem. 278:11612-11622 (2003), which are hereby incorporated by reference in their entirety). However, in some cases, β-amyloid1-42 was first dissolved in 100% hexafluoroisopropanolol to ensure the elimination of any preexisting aggregates ((Dahlgren et al., J. Biol. Chem. 277:32046-32053 (2002); Stine et al., J. Biol. Chem. 278:11612-11622 (2003), which are hereby incorporated by reference in their entirety) and then this solvent was removed by evaporation prior to reconstituting the peptide in Me2SO. Cells were incubated with the reconstituted β-amyloid1-42 for 48 hours and cell viability was then assayed by the reduction of 3-(4,5-dimethylthiazole-2-yl)-2,5-diphenyltetrazolium bromide (MTT), as previously described in Miller et al., Brain Res. 963:43-56 (2003), which is hereby incorporated by reference in its entirety. The effects of H2O2 (10-30 μM) on cell viability were assayed in a similar manner (Tamagno et al., Exp Neurol 180:144-155 (2003), which is hereby incorporated by reference in its entirety). Values for untreated controls were set at 100% viability and each treatment was assessed as a percentage of the control values (+/−SD). Each treatment was performed in triplicate and evaluated by using a one-way analysis of variation (ANOVA) with Turkey's post hoc analysis to determine differences between the groups with the a value set at 0.05.

c-Jun kinase (JNK) = c-Jun kinase (JNK) activity in β-amyloid-treated cells; type: cell-based, human; conditions: β-amyloid1-42-treated cells
guinea pig liver TGase = target: T1, guinea pig liver TGase (Cavia cutleri, UniProt P08587); assay: In vitro transamidation (cross-linking) of β-amyloid1-42 by TGase, immunoblot; type: biochemical
T1 construct: 0.1 μg of guinea pig liver TGase (Sigma); purchased Sigma; host or cells: guinea pig liver
T1 sequence (P08587 2-690): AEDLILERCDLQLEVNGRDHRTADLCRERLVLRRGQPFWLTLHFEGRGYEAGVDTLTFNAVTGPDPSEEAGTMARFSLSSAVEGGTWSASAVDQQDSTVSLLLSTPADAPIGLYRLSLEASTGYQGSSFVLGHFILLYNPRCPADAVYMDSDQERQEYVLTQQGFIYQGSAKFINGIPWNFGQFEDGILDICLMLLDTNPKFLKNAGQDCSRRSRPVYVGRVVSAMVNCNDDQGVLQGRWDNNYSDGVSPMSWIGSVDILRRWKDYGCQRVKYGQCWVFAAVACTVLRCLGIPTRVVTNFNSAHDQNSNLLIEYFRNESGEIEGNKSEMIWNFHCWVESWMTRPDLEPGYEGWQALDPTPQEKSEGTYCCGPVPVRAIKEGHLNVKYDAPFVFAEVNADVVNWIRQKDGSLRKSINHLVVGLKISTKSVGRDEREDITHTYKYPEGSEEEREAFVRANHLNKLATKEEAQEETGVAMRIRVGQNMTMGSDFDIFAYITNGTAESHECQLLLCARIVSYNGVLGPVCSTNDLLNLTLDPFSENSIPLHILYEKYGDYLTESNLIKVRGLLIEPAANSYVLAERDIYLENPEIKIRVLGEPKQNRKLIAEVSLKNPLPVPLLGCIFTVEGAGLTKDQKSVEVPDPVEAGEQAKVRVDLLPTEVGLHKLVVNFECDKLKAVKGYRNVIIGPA
Description: FIGS. 11A-B illustrate examination of the cross-linking of β-amyloid by TGase.
The in vitro transamidation reactions were performed with one or all of the following: 1 μg of β-amyloid1-42, 0.1 μg of guinea pig liver TGase (Sigma), 500 μM CaCl2, and/or 50 μM MDC. Each reaction was performed in 50 mM Tris-HCl, pH 7.2, and incubated for 60 minutes at 37° C. The reactions were stopped by the addition of an equal volume of 20% SDS and 10 μl of Laemmeli's sample buffer and immediately boiled for 20 minutes to break up any non-covalent aggregation of β-amyloidi1-42. SDS-PAGE was performed on the samples, followed by blotting onto nitrocellulose membranes (Amersham). The membranes were immunoblotted with anti-β-amyloid antibody.

TGase [3] = assay: TGase expression and level in SH-SY5Y cells and cell fractions (immunoblot); type: cell-based, human
Description: as §1, with “Cells were incubated with the reconstituted β-amyloid1-42 for 48 hours and cell viability was then assayed by the reduction of 3-(4,5-dimethylthiazole-2-yl)-2,5-diphenyltetrazolium bromide (MTT), as previously described in Miller et al., Brain Res. 963:43-56 (2003), which is hereby incorporated by reference in its entirety. The effects of H2O2 (10-30 μM) on cell viability were assayed in a similar manner (Tamagno et al., Exp Neurol 180:144-155 (2003), which is hereby incorporated by reference in its entirety).” left out, “(+/-SD).” for “(+/−SD).”, “0.05. SH-SY5Y cells, treated with and without β-amyloid1-42 for 48 hours, were lysed by freeze/thawing using liquid nitrogen in a 0.25 M sucrose solution containing 1 mM dithiothreitol, 1 μg/ml aprotinin, 1 μg/ml leupeptin and 100 μM phenylmethylsulfonyl fluoride. […]” for “0.05.”

SH-SY5Y cells = assay: Nuclear condensation or blebbing apoptosis assay; type: cell-based, human; conditions: 5 μM β-amyloid1-42, 48 hours; compared to control cells
Description: Construction of the pcDNA3 Myc-tagged vector used herein has been described in Tu et al., J. Biol. Chem. 278:49293-49300 (2003), which is hereby incorporated by reference in its entirety. Insertion of the TGase cDNA into the vector was accomplished by performing BamHI and EcoRI restriction-site digestion of the previously generated pTRE TGase (wild-type) vector (Antonyak et al., J. Biol. Chem. 276:33582-33587 (2001), which is hereby incorporated by reference in its entirety) to excise the cDNA encoding wild-type TGase, followed by subcloning it into the pcDNA3 Myc-tagged vector using T4 DNA ligase (Invitrogen, Carlsbad, Calif.). The pcDNA3-Myc-TGase vector was used to generate the transamidation-defective (C277V) mutant with the Quikchange site-directed mutagenesis kit (Stratagene, La Jolla, Calif.). Each TGase construct was sequenced to confirm the presence or absence of the mutation. […]
Immunofluorescence was also performed 48 hours after transient transfections with TGase constructs. […] Cells expressing the various TGase constructs were counted from three separate experiments (over 100 cells from each slide were scored) after β-amyloid1-42 treatment and the apoptotic rate was assessed relative to the percentage of apoptosis for untreated (transfected) cells. […]

[4] = H2O2 20 μM, 24 hours, RA-differentiated SH-SY5Y
[5] = 2.5-10 μM β-amyloid1-42, 48 hours

OO [H2O2, hydrogen peroxide]
caspase activation (caspase-3; 30 μM H2O2, 24 hours, RA-differentiated SH-SY5Y): resulted in caspase activation | cytosolic transamidation activity (TGase [1]; H2O2, 24 hours): significant increase | reduction of cell viability [2, 4]: 30-40%

CN(C)c1cccc2c(S(=O)(=O)NCCCCCN)cccc12 [MDC, monodansyl cadaverine]
effect of MDC on β-amyloid1-42 stimulation of c-Jun kinase (JNK) activity (c-Jun kinase (JNK)): did not block | effect of MDC on β-amyloid1-42 activation of caspases (caspase-3; β-amyloid1-42-treated cells): did not block | difference in cell viability in the presence or absence of MDC, 5 μM BA ([2]; 25 μM MDC, 5 μM BA, 48 hours, p=0.027): significant difference | difference in cell viability in the presence or absence of MDC, 10 μM BA ([2]; 25 μM MDC, 10 μM BA, 48 hours, p=0.022): significant difference | effect of MDC on H2O2-induced cytotoxicity [2, 4]: greatly enhanced cytotoxicity | TGase-catalyzed oligomerization (transamidation) of β-amyloid1-42 (guinea pig liver TGase; 50 μM MDC, 0.1 μg TGase, 1 μg BA, 500 μM Ca2+, 60 minutes): completely eliminated

CC1=C(/C=C/C(C)=C/C=C/C(C)=C/C(=O)O)C(C)(C)CCC1 [RA, all-trans-retinoic acid]
TGase expression (TGase [3]; 20 μM RA, SH-SY5Y in low serum media): significant up-regulation

β-amyloid1-42: most abundant and naturally occurring form of β-amyloid; HPLC-purified from American Peptide
percentage of cells undergoing apoptosis (SH-SY5Y cells): increased | levels of TGase in the membrane/particulate fractions (TGase [3]; [5]): dramatically increased | TGase expression (TGase [3]; β-amyloid1-42 48 hours, absence or presence of RA): no effect | apoptotic response read out by caspase-3 activation (caspase-3; oligomeric β-amyloid1-42, 37° C.): induced an apoptotic response | production of BPA conjugates (transamidation activity) in the membrane/particulate fractions (TGase [1]; [5]): marked enhancement | transamidation substrate for TGase in vitro (guinea pig liver TGase; Ca2+ levels below 1 mM): effective transamidation substrate
